Values after ≈ are worked out from the molar mass of the structure shown.
Tested on: dermatophytes, moulds and yeasts
Experiment: Antimycotic in vitro activity, series dilution test (overall action spectrum)
Type: cell-based
Details: result in words
Protocol: (§1) The in vitro tests were carried out in a series dilution test with germ inocula of on average 5×10^4 germs/ml of substrate. The nutrient medium used was (a) for dermatophytes and moulds: Sabourand's milieu d'epreuve, and (b) for yeasts: meat extract/glucose broth. The incubation temperature was 20° C. and the duration of incubation was 24 to 96 hours in the case of yeasts and 96 hours in the case of dermatophytes and moulds.

SMILES	antimycotic action spectrum in vitro
CC(C)(n1cncn1)C(O)(Cn1cncn1)c1ccc(F)cc1 (stereo not drawn) [Example 3]	good antimycotic action spectrum
CC(C)(n1cncn1)C(O)(Cn1cncn1)c1ccc(Oc2ccc(Cl)cc2)cc1 (stereo not drawn) [Example 5]	good antimycotic action spectrum
CC(C)(n1cncn1)C(O)(Cn1cncn1)c1ccc(-c2ccc(Cl)cc2)cc1 (stereo not drawn) [Example 6]	good antimycotic action spectrum
CC(C)(n1cncn1)C(O)(Cn1ccnc1)c1ccc(Oc2ccc(Cl)cc2)cc1 (stereo not drawn) [Example 8]	good antimycotic action spectrum
CC(C)(n1cncn1)C(O)(Cn1ccnc1)c1ccc(-c2ccc(Cl)cc2)cc1 (stereo not drawn) [Example 9]	good antimycotic action spectrum
CC(n1cncn1)C(O)(Cn1cncn1)c1ccc(-c2ccccc2)cc1 (stereo not drawn) [Example 10]	good antimycotic action spectrum

Tested on: Aspergillus fumigatus
Experiment: Antimycotic in vitro activity, series dilution test
Type: cell-based
Details: Sabourand's milieu d'epreuve, 5×10^4 germs/ml, 20° C., 96 hours
Protocol: as §1, with “[…]” for “and (b) for yeasts: meat extract/glucose broth.”

SMILES	MIC [µg/mL]
CC(C)(n1cncn1)C(O)(Cn1cncn1)c1ccc(F)cc1 (stereo not drawn) [Example 3]	> 64
CC(C)(n1cncn1)C(O)(Cn1cncn1)c1ccc(Oc2ccc(Cl)cc2)cc1 (stereo not drawn) [Example 5]	> 64
CC(C)(n1cncn1)C(O)(Cn1cncn1)c1ccc(-c2ccc(Cl)cc2)cc1 (stereo not drawn) [Example 6]	16 (≈ 39.1 µM)
CC(C)(n1cncn1)C(O)(Cn1ccnc1)c1ccc(Oc2ccc(Cl)cc2)cc1 (stereo not drawn) [Example 8]	64 (≈ 151 µM)
CC(C)(n1cncn1)C(O)(Cn1ccnc1)c1ccc(-c2ccc(Cl)cc2)cc1 (stereo not drawn) [Example 9]	32 (≈ 78.4 µM)
CC(n1cncn1)C(O)(Cn1cncn1)c1ccc(-c2ccccc2)cc1 (stereo not drawn) [Example 10]	64 (≈ 178 µM)

Tested on: Torulopsis glabrata
Experiment: as above
Type: cell-based
Details: Nakaseomyces glabratus; meat extract/glucose broth; 5×10^4 germs/ml; 20° C.; 24 to 96 hours
Protocol: as §1, with “was” for “was (a) for dermatophytes and moulds: Sabourand's milieu d'epreuve, and”

SMILES	MIC [µg/mL]
CC(C)(n1cncn1)C(O)(Cn1cncn1)c1ccc(F)cc1 (stereo not drawn) [Example 3]	64 (≈ 202 µM)
CC(C)(n1cncn1)C(O)(Cn1cncn1)c1ccc(Oc2ccc(Cl)cc2)cc1 (stereo not drawn) [Example 5]	32 (≈ 75.3 µM)
CC(C)(n1cncn1)C(O)(Cn1ccnc1)c1ccc(Oc2ccc(Cl)cc2)cc1 (stereo not drawn) [Example 8]	32 (≈ 75.5 µM)
CC(C)(n1cncn1)C(O)(Cn1ccnc1)c1ccc(-c2ccc(Cl)cc2)cc1 (stereo not drawn) [Example 9]	8 (≈ 19.6 µM)
CC(n1cncn1)C(O)(Cn1cncn1)c1ccc(-c2ccccc2)cc1 (stereo not drawn) [Example 10]	64 (≈ 178 µM)

Tested on: Candida albicans
Experiment: as above
Type: cell-based
Details: meat extract/glucose broth, 5×10^4 germs/ml, 20° C., 24 to 96 hours
Protocol: as §1, with “was” for “was (a) for dermatophytes and moulds: Sabourand's milieu d'epreuve, and”

SMILES	MIC [µg/mL]
CC(C)(n1cncn1)C(O)(Cn1cncn1)c1ccc(F)cc1 (stereo not drawn) [Example 3]	16 (≈ 50.6 µM)
CC(C)(n1cncn1)C(O)(Cn1cncn1)c1ccc(Oc2ccc(Cl)cc2)cc1 (stereo not drawn) [Example 5]	2 (≈ 4.71 µM)
CC(C)(n1cncn1)C(O)(Cn1cncn1)c1ccc(-c2ccc(Cl)cc2)cc1 (stereo not drawn) [Example 6]	64 (≈ 157 µM)
CC(C)(n1cncn1)C(O)(Cn1ccnc1)c1ccc(Oc2ccc(Cl)cc2)cc1 (stereo not drawn) [Example 8]	4 (≈ 9.44 µM)
CC(C)(n1cncn1)C(O)(Cn1ccnc1)c1ccc(-c2ccc(Cl)cc2)cc1 (stereo not drawn) [Example 9]	8 (≈ 19.6 µM)
CC(n1cncn1)C(O)(Cn1cncn1)c1ccc(-c2ccccc2)cc1 (stereo not drawn) [Example 10]	2 (≈ 5.55 µM)

Tested on: Trichophyton mentagr.
Experiment: as above
Type: cell-based, Trichophyton mentagrophytes
Details: Sabourand's milieu d'epreuve, 5×10^4 germs/ml, 20° C., 96 hours
Protocol: as §1, with “[…]” for “and (b) for yeasts: meat extract/glucose broth.”

SMILES	MIC [µg/mL]
CC(C)(n1cncn1)C(O)(Cn1cncn1)c1ccc(F)cc1 (stereo not drawn) [Example 3]	16 (≈ 50.6 µM)
CC(C)(n1cncn1)C(O)(Cn1cncn1)c1ccc(Oc2ccc(Cl)cc2)cc1 (stereo not drawn) [Example 5]	≤ 1
CC(C)(n1cncn1)C(O)(Cn1cncn1)c1ccc(-c2ccc(Cl)cc2)cc1 (stereo not drawn) [Example 6]	≤ 1
CC(C)(n1cncn1)C(O)(Cn1ccnc1)c1ccc(Oc2ccc(Cl)cc2)cc1 (stereo not drawn) [Example 8]	8 (≈ 18.9 µM)
CC(C)(n1cncn1)C(O)(Cn1ccnc1)c1ccc(-c2ccc(Cl)cc2)cc1 (stereo not drawn) [Example 9]	4 (≈ 9.81 µM)
CC(n1cncn1)C(O)(Cn1cncn1)c1ccc(-c2ccccc2)cc1 (stereo not drawn) [Example 10]	2 (≈ 5.55 µM)

Tested on: Candida
Experiment: Antimycotic in vivo activity (oral) in candidosis of mice
Design: species or system mice (SPF-CF1)
Details: 10-50 mg/kg one hour before and seven hours after infection, result in words
Protocol: Mice of the SPF-CF1 type were infested intravenously with 1-2×10^6 logarthmically growing Candida cells, which were suspended in physiological saline solution. The animals were treated with, in each case, 10-50 mg/kg of body weight of the products one hour before and seven hours after the infection.

SMILES	antimycotic action in candidosis of mice (in words)
CC(C)(n1cncn1)C(O)(Cn1cncn1)c1ccc(Cl)cc1 (stereo not drawn) [Example 1, 2-(4-chlorophenyl)-1,3-di-(1,2,4-triazol-1-yl)-3-methyl-2-butanol]	good antimycotic action
CC(C)(n1cncn1)C(O)(Cn1cncn1)c1ccc(F)cc1 (stereo not drawn) [Example 3]	good antimycotic action
CC(C)(n1cncn1)C(O)(Cn1cncn1)c1ccccc1 (stereo not drawn) [Example 4]	good antimycotic action
CC(C)(n1cncn1)C(O)(Cn1cncn1)c1ccc(Oc2ccc(Cl)cc2)cc1 (stereo not drawn) [Example 5]	good antimycotic action

— US5011850A, “Substituted diazolylalkyl-carbinols, a process for their preparation and their use as antimycotic agents” (Bayer Aktiengesellschaft, priority 1983, dated 1991)
